Structures can show the parent of a compound that is named as a salt.
What was measured:
[1] = test system: arrhythmic cardiac microtissues (hiPSC-CM, cell line 1); test: Anti-arrhythmic drug testing on arrhythmic cardiac microtissues (optical mapping)
[2] = test system: cardiac microtissues (hiPSC-CMs and human cardiac fibroblasts); test: Arrhythmia induction in 3D cardiac microtissues (brightfield beat rate, optical mapping, stimulation capture); format: cell-based; conditions: for presence of arrhythmias at endpoint: N=3
Description: (§1) Tissues were allowed to compact for 7 days (Day -7 to 0) and treatment with either arrhythmogenic or control media conditions began on day 8 post-seeding (e.g. Day 0 in FIG. 1A). Arrhythmogenic media consisted of DMEM no glucose (ThermoFisher; 11966025), B-27 minus insulin supplement (1×; ThermoFisher; A1895602), HEPES (10 mM), L-carnitine (2 mM), creatine (5 mM), taurine (5 mM), MEM non-essential amino acids ([…]; ThermoFisher; 11140050), insulin-transferrin-selenium (1×; ThermoFisher; 41400045), galactose (10 mM), MBCD or MBCD-conjugated FAs as follows: hiPSC-CMs were treated with 100 μM FAs (linoleic acid 40 μM, oleic acid 40 μM, and palmitic acid 20 μM; MBCD 0.8 mM); and hESC-CMs were treated with 200 μM FAs (linoleic acid 80 μM, oleic acid 80 μM, and palmitic acid 40 μM; MBCD 1.6 mM)), glutamine (1 mM), and antibiotic-antimycotic. […] Instead, control media were supplemented with glucose (5 mM) and either FA vehicles (MBCD) at a lower dose of MBCD than the arrhythmogenic media (0.5 mM) or no MBCD (to confirm MBCD was the arrhythmogenic agent). Microtissues were treated by addition of media containing the components described above for up to 5 days and analyzed (e.g., imaging, tissue harvesting for isolation of RNA for transcriptomic analysis, fixing tissues for histopathological assessments/staining) at different time points to assess functional and transcriptomic parameters (see FIG. 1A).
During contractile force measurements, cardiac microtissues were electrically stimulated at 1 Hz and at their respective excitation threshold and videos of the 1:30 PDMS rods were taken for 15 seconds under 10× magnification with a Leica EC3 camera. For tissue compaction and spontaneous beating rate measurements, the tissues were not stimulated.
To assess the range of stimulation capture, microtissues were stimulated by a silver electrode at 3 Hz and 6V, and the distance from the electrode to which point the cardiac microtissue was not electrically captured by the delivered electrical impulse was marked as the range of stimulation capture (mm) (e.g., see FIG. 1H).

[3] = test system: 5-day arrhythmic cardiac microtissues; test: Arrhythmia reversal by removal of MBCD from media; format: cell-based, human; conditions: 5 days arrhythmogenic media
Description: as §1
Finally, it was reasoned that if MBCD was causing arrhythmias, removal of MBCD from culture media could reverse arrhythmias. To test this, 5-day arrhythmogenic tissues were cultured in control media for 5 additional days (see FIG. 6A). […] Arrhythmic tissues progressively regained synchronicity, allowing for the measurement of beat frequency.

[4] = arrhythmic tissues, acute treatment 30 min, lidocaine 17.5 μg/mL
[5] = isoproterenol added to lidocaine-treated arrhythmic tissues

CCN(CC)CC(=O)Nc1c(C)cccc1C [lidocaine, Lidocaine HCl]
conduction velocity [1, 4]: significantly decreased
cycle length duration [1, 4]: increasing
mean number of wavefronts per frame [1, 4]: significant reduction

methyl-β-cyclodextrin [MBCD]
development of arrhythmias ([2]; low MBCD concentration 0.5 mM (control media), 5 days): did not develop arrhythmias
presence of arrhythmias at endpoint ([2]; media containing both MBCD and glucose (5mM), 5 days): arrhythmias were also induced
Cx43 and N-Cad expression and co-localization after arrhythmia reversal ([3]; then 5 days control media): significant increase
passive force after arrhythmia reversal ([3]; then 5 days control media): without significant changes
synchronicity after removal of MBCD ([3]; then 5 days control media): started beating synchronously
contractile force of reverted tissues relative to age matched control tissues ([3]; then control media, plateau, p<0.0001): ~50%

CCCCc1oc2ccccc2c1C(=O)c1cc(I)c(OCCN(CC)CC)c(I)c1 [amiodarone, Amiodarone]
electrophysiological changes (wavefronts per frame, conduction velocity, cycle length) ([1]; arrhythmic tissues, acute treatment 30 min, flecainide 10 μM, propranolol 4 μg/mL, amiodarone 30 μg/mL): did not produce any significant electrophysiological changes

CC(C)NCC(O)c1ccc(O)c(O)c1 (stereo not drawn) [isoproterenol]
conduction velocity [1, 5]: increase
cycle length [1, 5]: reduction
mean wavefronts per frame [1, 5]: no change

O=C[C@H](O)[C@@H](O)[C@@H](O)[C@H](O)CO [galactose]
presence of arrhythmias at endpoint ([2]; media containing only galactose (10 mM), no MBCD): did not become arrhythmic

BSA-ligated fatty acids: BSA-ligated fatty acids used in place of MBCD-conjugated fatty acids
induction of arrhythmogenesis ([2]; BSA-ligated fatty acids instead of MBCD-conjugated fatty acids): no effect

From US20220251517A1
